Test results from PubChem BioAssay AID1963828 (Molecular Pharmacology Branch, DTP, NCI, 2024).

Tested on: 991263-137-R1-J2-PDC complex spheroid viability
Assay: Anticancer human tumor 991263-137-R1-J2-PDC patient-derived colon adenocarcinoma cell line growth inhibition [POLQ]
Conditions: for IC50: curve of first compound; for viability, T/C: stronger effect = lower value
Procedure: Multicellular complex tumor spheroid response to Polymerase (POL) inhibitors (novobiocin, ART-558, RP6685) in combination with a variety of drugs and investigational agents in selected tumor cell lines
The POL inhibitors (novobiocin, ART-558, and RP6685) were evaluated both individually and in combination with standard of care and investigational anticancer small molecules within a complex spheroid model of solid tumors. . Complex spheroids include a stromal component modeled by human endothelial cells (HUVEC) and fibroblasts modeled by human mesenchymal stem cells (MSCs). The concentration ranges selected for each drug and investigational agent were based upon clinically achievable concentrations if the clinical Cmax of the agent was known.
Compounds. The drugs and investigational agents: novobiocin (NSC847541), ART-558 (NSC835418), RP-6685 (NSC848927), peposertib (NSC802822), ceralasertib (NSC780249), elimusertib (NSC800525), camonsertib (NSC841442), AZD-1390 (NSC803789), olaparib (NSC753686), talazoparib (NSC767125), rucaparib (NSC756644), sotorasib (NSC818433), MRTX-1133 (NSC836407), SN-38 (NSC673596), topotecan (NSC609699), epotoside (NSC141540), doxorubicin (NSC123127), gemcitabine (NSC613327), 5-fluorouracil (NSC19893), paclitaxel (NSC125973), vemurafenib (NSC761431), MSA-2 (NSC828583), SN-011 (NSC837082), adavosertib (NSC754352), prexasertib (NSC758257), carboplatin (NSC241240) and oxaliplatin (NSC266046), were obtained from the National Cancer Institute (NCI) Developmental Therapeutics Program Chemical Repository (21). The FDA-approved anticancer drug set is available from the Developmental Therapeutics Program at https://dtp.cancer.gov/organization/dscb/obtaining/. […] The stock solutions were prepared in dimethyl sulfoxide (DMSO, Sigma-Aldrich, St. Louis, MO, cat. D2650), except for the platinum compounds which were prepared in saline (Quality Biological, Gaithersburg, MD, cat. 114-055-101), at 800-fold the tested concentration and stored at -70 degrees C prior to their use. All drugs and investigational agents were tested over a range starting from a high concentration at or near the clinical Cmax and decreasing in half-log increments. If the clinical Cmax for an agent had not been determined, the highest concentration tested was 10 microM, except for SN-38, which was tested at a high concentration of 1 microM.
Cell Culture. All cells were maintained in an incubator at 37 degrees C and 5% CO2 with 95% humidity. The PDC lines were cultured according to standard operating procedures established by the NCI PDMR (https://pdmr.cancer.gov). Table 3 of the manuscript, lists the cell lines along with the number of the three cell types plated to form the mct-spheroids and media for tumor cell growth. After thawing, all PDC lines, except 997537-175-T-J1-PDC and 415267-285-R-J2-PDC, were cultured in Matrigel-coated flasks prepared with a working solution of 1X Ham's F-12 nutrient mix, without supplementation (Thermo Fisher Scientific, cat. 11765054), 100 U/mL penicillin-streptomycin (Thermo Fisher Scientific, cat. 15140122), and 2.5% Matrigel (Corning Inc., Corning, NY, cat. 354248) for the first three passages. The two PDC lines 997537-175-T-J1-PDC and 415267-285-R-J2-PDC were cultured on uncoated flasks. The 857933-349-R-J2-PDC line was cultured in 6C/Colon 1B media containing advanced DMEM/F-12 (Thermo Fisher Scientific, cat. 12634028), 10 mM HEPES (Thermo Fisher Scientific, cat. 15630080), 1X GlutaMAX supplement (Thermo Fisher Scientific, cat. 35050061), 0.1 mg/mL primocin (InvivoGen, San Diego, CA, cat. ant-pm-2), 10% defined fetal bovine serum, heat inactivated (HyClone Laboratories Inc., Logan, UT, cat. SH30070.03HI), 50% L-WRN conditioned media (ATCC, cat. CRL-3276), 1.25 mM N-Acetyl-L-cysteine (Sigma-Aldrich, cat. A9165), 10 mM nicotinamide (Sigma-Aldrich, cat. N0636), 1X B-27 supplement (Thermo Fisher Scientific, cat. 17504044), 1X N-2 supplement (Thermo Fisher Scientific, cat. […]

[1] = second compound 0.0316 µM, first compound 0.0316 µM
[2] = second compound 0.0316 µM, first compound 0.1 µM
[3] = second compound 0.1 µM, first compound 0.0316 µM
[4] = second compound 0.1 µM, first compound 0.1 µM
[5] = second compound 0.316 µM, first compound 0.0316 µM
[6] = second compound 0.316 µM, first compound 0.1 µM
[7] = second compound 1 µM, first compound 0.0316 µM
[8] = second compound 1 µM, first compound 0.1 µM
[9] = second compound 3.16 µM, first compound 0.0316 µM
[10] = second compound 3.16 µM, first compound 0.1 µM
[11] = second compound 10 µM, first compound 0.0316 µM
[12] = second compound 10 µM, first compound 0.1 µM
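Also: spheroids exposed to compounds for 7 days before readout.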
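For viability, T/C in this document: 100% = DMSO vehicle control viability.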

O=C(Nc1ccc(O)c(NS(=O)(=O)c2ccc(F)cc2)c1)c1ccc(-c2ccccc2)cc1 + Cc1cccc(N(C)C(=O)C2C(O)CCN2c2nc(C)cc(C(F)(F)F)c2C#N)c1
IC50 (second compound 0.0316 µM): > 10 µM | IC50 (second compound 0.1 µM): > 10 µM | IC50 (second compound 0.316 µM): > 10 µM | IC50 (second compound 1 µM): > 10 µM | IC50 (second compound 3.16 µM): > 10 µM | IC50 (second compound 10 µM): > 10 µM | viability, T/C [1]: 103% | viability, T/C [2]: 99.6% | viability, T/C (second compound 0.0316 µM, first compound 0.316 µM): 90.9% | viability, T/C (second compound 0.0316 µM, first compound 1 µM): 101% | viability, T/C (second compound 0.0316 µM, first compound 3.16 µM): 87.2% | viability, T/C (second compound 0.0316 µM, first compound 10 µM): 92% | viability, T/C [3]: 96.8% | viability, T/C [4]: 95.7% | viability, T/C (second compound 0.1 µM, first compound 0.316 µM): 113% | viability, T/C (second compound 0.1 µM, first compound 1 µM): 94.8% | viability, T/C (second compound 0.1 µM, first compound 3.16 µM): 99% | viability, T/C (second compound 0.1 µM, first compound 10 µM): 91% | viability, T/C [5]: 98.3% | viability, T/C [6]: 97.5% | viability, T/C (second compound 0.316 µM, first compound 0.316 µM): 103% | viability, T/C (second compound 0.316 µM, first compound 1 µM): 80.9% | viability, T/C (second compound 0.316 µM, first compound 3.16 µM): 99.6% | viability, T/C (second compound 0.316 µM, first compound 10 µM): 86.5% | viability, T/C [7]: 99.2% | viability, T/C [8]: 99% | viability, T/C (second compound 1 µM, first compound 0.316 µM): 106% | viability, T/C (second compound 1 µM, first compound 1 µM): 94.2% | viability, T/C (second compound 1 µM, first compound 3.16 µM): 103% | viability, T/C (second compound 1 µM, first compound 10 µM): 80.1% | viability, T/C [9]: 96.4% | viability, T/C [10]: 96.2% | viability, T/C (second compound 3.16 µM, first compound 0.316 µM): 95.2% | viability, T/C (second compound 3.16 µM, first compound 1 µM): 109% | viability, T/C (second compound 3.16 µM, first compound 3.16 µM): 105% | viability, T/C (second compound 3.16 µM, first compound 10 µM): 85.8% | viability, T/C [11]: 93.7% | viability, T/C [12]: 95.9% | viability, T/C (second compound 10 µM, first compound 0.316 µM): 90.5% | viability, T/C (second compound 10 µM, first compound 1 µM): 96.8% | viability, T/C (second compound 10 µM, first compound 3.16 µM): 105% | viability, T/C (second compound 10 µM, first compound 10 µM): 87.5%

CC[C@@]1(O)C(=O)OCc2c1cc1n(c2=O)Cc2cc3c(CN(C)C)c(O)ccc3nc2-1 + Nc1ccc(C#CCN(C(=O)Cc2ncc(C(F)(F)F)cc2C(F)(F)F)c2ccc(F)cc2)nn1
IC50 (second compound 0.0316 µM): > 0.1 µM | IC50 (second compound 0.1 µM): > 0.1 µM | IC50 (second compound 0.316 µM): > 0.1 µM | IC50 (second compound 1 µM): > 0.1 µM | IC50 (second compound 3.16 µM): > 0.1 µM | IC50 (second compound 10 µM): > 0.1 µM | viability, T/C (second compound 0.0316 µM, first compound 0.000316 µM): 94.8% | viability, T/C (second compound 0.0316 µM, first compound 0.001 µM): 92.6% | viability, T/C (second compound 0.0316 µM, first compound 0.00316 µM): 92.4% | viability, T/C (second compound 0.0316 µM, first compound 0.01 µM): 101% | viability, T/C [1]: 99.8% | viability, T/C [2]: 80.2% | viability, T/C (second compound 0.1 µM, first compound 0.000316 µM): 111% | viability, T/C (second compound 0.1 µM, first compound 0.001 µM): 102% | viability, T/C (second compound 0.1 µM, first compound 0.00316 µM): 101% | viability, T/C (second compound 0.1 µM, first compound 0.01 µM): 94.6% | viability, T/C [3]: 101% | viability, T/C [4]: 79.8% | viability, T/C (second compound 0.316 µM, first compound 0.000316 µM): 108% | viability, T/C (second compound 0.316 µM, first compound 0.001 µM): 109% | viability, T/C (second compound 0.316 µM, first compound 0.00316 µM): 95.4% | viability, T/C (second compound 0.316 µM, first compound 0.01 µM): 107% | viability, T/C [5]: 104% | viability, T/C [6]: 76.8% | viability, T/C (second compound 1 µM, first compound 0.000316 µM): 104% | viability, T/C (second compound 1 µM, first compound 0.001 µM): 106% | viability, T/C (second compound 1 µM, first compound 0.00316 µM): 101% | viability, T/C (second compound 1 µM, first compound 0.01 µM): 101% | viability, T/C [7]: 101% | viability, T/C [8]: 84.3% | viability, T/C (second compound 3.16 µM, first compound 0.000316 µM): 102% | viability, T/C (second compound 3.16 µM, first compound 0.001 µM): 94.9% | viability, T/C (second compound 3.16 µM, first compound 0.00316 µM): 105% | viability, T/C (second compound 3.16 µM, first compound 0.01 µM): 93.1% | viability, T/C [9]: 93.6% | viability, T/C [10]: 65.6% | viability, T/C (second compound 10 µM, first compound 0.000316 µM): 102% | viability, T/C (second compound 10 µM, first compound 0.001 µM): 112% | viability, T/C (second compound 10 µM, first compound 0.00316 µM): 107% | viability, T/C (second compound 10 µM, first compound 0.01 µM): 88.1% | viability, T/C [11]: 91.1% | viability, T/C [12]: 66.6%
